Test results taken from ChEMBL document CHEMBL3045947, “Identification of Novel Non-nucleoside Reverse Transcriptase Inhibitors Using Fragment-based Lead Generation” (Med Chem Res, 2005).

Columns and labels:
[1] = system: Human immunodeficiency virus 1; assay: Antiviral activity against Human immunodeficiency virus 1 IIIB infected human MT4 cells assessed as inhibition of virus-induced cytopathic effect after 7 days by MTT assay; assay type: functional, organism-based; settings: MT4, 168 h
[2] = Cytotoxicity against Homo sapiens (human) MT4 cells after 5 days by MTT assay; assay type: cell-based
[3] = Selectivity index, ratio of CC50 for human MT4 cells to EC50 for HIV13B; assay type: toxicity, cell-based; settings: read-out: Ratio CC50/EC50

`Nc1nc(-c2ccc(Cl)cc2)cc(-c2ccccc2O)n1` showed an EC50 [1] greater than 74.7 µM and a CC50 at 120 h [2] greater than 74.7 µM.
Compound `Nc1nc(-c2ccccc2)cc(-c2ccccc2O)n1` has a selectivity ratio [3] of 10, an EC50 [1] of 3.22 µM and a CC50 at 120 h [2] of 31.3 µM.
Work on `COc1ccc(-c2cc(-c3ccccc3O)nc(N)n2)cc1` yielded an EC50 [1] greater than 92.2 µM and a CC50 at 120 h [2] of 92.2 µM.
Work on `COc1cccc(-c2cc(-c3ccccc3O)nc(N)n2)c1` yielded an EC50 [1] greater than 78.3 µM and a CC50 at 120 h [2] greater than 78.3 µM.
Work on `Nc1nc(-c2cccc(Cl)c2)cc(-c2ccccc2O)n1` yielded an EC50 [1] greater than 125 µM and a CC50 at 120 h [2] greater than 125 µM.
In the case of `Nc1nc(-c2ccc(F)cc2)cc(-c2ccccc2O)n1`, the EC50 [1] is reported as greater than 67.5 µM and the CC50 at 120 h [2] is reported as 67.5 µM.
For `COc1ccc(-c2cc(-c3ccccc3O)nc(N)n2)cc1OC`, the EC50 [1] was greater than 7.36 µM and the CC50 at 120 h [2] was 7.36 µM.
`Nc1nc(-c2cccs2)cc(-c2ccccc2O)n1` showed an EC50 [1] of 5.59 µM and a CC50 at 120 h [2] of 5.3 µM.
Work on `Nc1nc(-c2ccco2)cc(-c2ccccc2O)n1` yielded an EC50 [1] greater than 125 µM and a CC50 at 120 h [2] greater than 125 µM.
Compound `Cc1cccc(-c2cc(-c3ccccc3O)nc(N)n2)c1` has a selectivity ratio [3] of 4, an EC50 [1] of 3.45 µM and a CC50 at 120 h [2] of 13 µM.
Compound `Cc1ccc(-c2cc(-c3ccccc3O)nc(N)n2)cc1` has an EC50 [1] greater than 125 µM and a CC50 at 120 h [2] greater than 128 µM.
